Test results taken from patent US11564947B2, “Methods and compositions for cellular immunotherapy” (eFFECTOR Therapeutics, Inc., priority 2017, dated 2023).

Tests used:
[1] = test system: CD8+ T cells; assay: T cell memory formation, OVA MHC class I epitope peptide (SIINFEKL) stimulation of OT-I splenocytes; format: cell-based, mouse; settings: 5 μg/ml SIINFEKL peptide plus Compound 107 0.01-10 μM, 48 hrs, peptide alone 32%
Experimental: (§1) Spleens were isolated from OT-I and processed into a single cell suspension. Red blood cells (RBCs) were lysed using RBC lysis solution. Splenocytes (2×10^6 cells/ml) were cultured in complete media (10% FBS in DMEM) and stimulated with 5 μg/ml OVA MHC class I epitope peptide (SIINFEKL, SEQ ID NO:1) in the absence or presence of 0.01 μM, 0.1 μM, 1.0 μM, 3.0 μM, or 10 μM of MNK-specific inhibitor, Compound 107, for 48 hrs. For the mixed lymphocyte reaction (MLR) assay, peritoneal macrophages were first isolated from BALB/c mice by peritoneal wash with chilled DMEM media. This lavage was plated in a 24 well plate for 2 h at 37° C. After 2 h, non-adherent cells were washed to remove non-macrophage populations. The adherent cells (primarily peritoneal macrophages) were cultured in complete media in the absence or presence of the indicated Compound 107 concentrations for 24 h. After 24 h, panned splenocytes (enriched in T cells) from C57BL/6 mice were added to the macrophage culture in the absence or presence of Compound 107 for an additional 4 days.
(§2) The cells were harvested from the MLR, washed and stained with Horizon™ FVS, anti-CD4, anti-CD8, anti-CD44 and anti-CD62L antibodies. The cells were analyzed by flow cytometry (Attune NXT, ThermoFisher) and FlowJo analysis software (FlowJo LLC, Ashland Oreg.). CD8+ and CD4+ cells populations were analyzed for expression of CD44 and CD62L. […]

[2] = test system: OT-I memory T cells (CD45.2+CD8+CD44+) in spleen; assay: Long-term memory/recall response after adoptive transfer of OT-I T cells; format: in vivo, B6.SJL mice
Experimental: Spleens were isolated from OT-I mice and CD3^+ T cells were isolated using the MojoSort Mouse CD3 T Cell Isolation Kit (Biolegend, San Diego Calif.). OT-I T cells (2×10^6 cells) were adoptively transferred into B6.SJL mice through intravenous tail vein injection. Mice were dosed orally with vehicle or 1 mg/kg Compound 107 24 hrs later and vaccinated subcutaneously with SIINFEKL peptide (SEQ ID NO:1) (50 μg/mouse). Mice were dosed with vehicle or 1 mg/kg Compound 107 for an additional six days. On day 21 post-immunization, selected groups were boosted with an additional injection of SIINFEKL peptide (SEQ ID NO:1) (50 μg/mouse). On day 24, spleens were harvested from animals and processed into a single cell suspension for flow cytometry analysis. Cells were stained with BD Horizon Fixable Viability Stain and antibodies against CD45.2, CD8, and CD44. Cells were analyzed using an Attune NXT flow cytometer and data was processed using FlowJo 10.1 software.

[3] = test system: E.G7-OVA tumors; assay: In vivo tumor growth inhibition; parameters: species or system athymic nude mice
Experimental: E.G7-OVA tumor cells (2×10^6) were implanted subcutaneously into athymic nude mice. On day 7 post-implant, tumors were measured (˜192 mm^3) and tumor-bearing animals were randomized into 6 groups. T cells purified from OT-I mouse spleens were cultured for 48 h in vitro with DMSO/PBS control alone, 50 μg/ml SIINFEKL peptide (SEQ ID NO:1) alone, 1 μM Compound 107, or the combination of 50 μg/ml SIINFEKL (SEQ ID NO:1) and 1 μM Compound 107. The in vitro treated OT-I T cells were adoptively transferred into animals from the appropriate groups (2×10^6 cells/mouse) by tail vein injection. Animals were dosed in vivo with vehicle or 1 mg/kg Compound 107 and tumor size and body weight was monitored during the course of the study.

[4] = test system: CD8+ T cells; assay: T cell memory formation, mixed lymphocyte reaction (MLR) assay, CD8+ cells; format: cell-based, mouse
Experimental: as §1, §2

[5] = test system: CD4+ T cells; assay: T cell memory formation, mixed lymphocyte reaction (MLR) assay, CD4+ cells; format: cell-based, mouse; settings: MLR in presence of Compound 107
Experimental: as §1, §2

Cc1cc(Nc2cc(N)ncn2)c(=O)n2c1C(=O)NC21CCCCC1.Cl [Compound 107]
distribution of CD8+ T cells in the TCM pool (CD44high CD62Lhigh) [1]: 36-41%
percentage of OT-I memory T cells in spleen (% of total lymphocytes) ([2]; immunized and boosted with SIINFEKL, 1 mg/kg oral during immunization, day 24, vs vehicle-treated immunized/boosted group): significantly increased
population of OT-I memory T cells in spleen (% of total lymphocytes) ([2]; un-immunized animals, 1 mg/kg oral, day 24): unaffected
tumor growth inhibition (TGI) ([3]; OT-I cells pre-treated in vitro with SIINFEKL and Compound 107, animals also dosed in vivo with 1 mg/kg Compound 107, compared with the vehicle-dosed group (55%)): did not show any further increase in TGI
tumor growth inhibition (TGI) ([3]; adoptive transfer of SIINFEKL-pre-treated OT-I cells, animals dosed 1 mg/kg Compound 107 daily, 8 days post-transfer): 45%
tumor growth inhibition (TGI) ([3]; no adoptive transfer of OT-I T cells, 1 mg/kg Compound 107 daily vs vehicle, 8 days post-transfer): 16%
tumor growth inhibition (TGI) ([3]; vehicle-dosed animals, OT-I cells pre-treated in vitro with SIINFEKL and 1 μM Compound 107, 8 days post-transfer): 55%
pool of TCM CD8+ T cells ([4]; MLR in presence of Compound 107, MLR alone 15%): 20-29%
TEM pool of CD8+ T cells ([4]; MLR, 0.01-3 μM of Compound 107, MLR alone 16%): 8-11%
pool of TCM CD4+ T cells ([5]; MLR alone 21%): 28-39%
TEM CD4+ T cell pool ([5]; MLR alone 25%): 16-23%
